Test results reported in patent US20130288292A1, “SURFACE-TENSION BASED FLOW GUIDANCE IN A MICROSTRUCTURE ENVIRONMENT” (priority 2011, published 2013).

System: PC3-M cells
Assay: Immunocytochemistry staining of Ki67 in PC3-M cells embedded in 3D Matrigel
Type: cell-based
Conditions: 20 μM Cycloheximide in growth media; PC3-M cells in 3D Matrigel (90%), Iuvo Slide 3D ICC platform
Experimental: FIGS. 11 A-C show immunocytochemistry staining of PC3-M Cells embedded in 3D matrix. PC3-M cells were embedded in 3D Matrigel™ (90%) on the Iuvo™ Slide—3D ICC platform (Figure A.). Once the matrix gelled, growth media (with and without 20 μM Cycloheximide) was added to the side compartments of the channel. Following incubation, the cells in the matrix were fixed by flowing reagents through the side channels and allowing sufficient time for diffusion into the gel. A standard immunocytochemistry protocol (4% formaldehyde fixative, 0.5% TX-100 permeabilization buffer, 10% goat serum blocking buffer, primary antibody for Ki67 from LabVision, and AlexaFluor®594 secondary antibody) was utilized. […] FIG. 11 C. is a graph showing the quantitative analysis of the immunocytochemistry staining of PC3-M Cells embedded in a 3D Matrix.
Another embodiment of the invention provides a device that enables the use of assay methods requiring multiple liquid replacement, or wash steps that require the diffusion of large biomolecules, in matrices that are very dense, such as Matrigel™. For example, it is becoming increasingly clear that the lack of a native three dimensional tissue microenvironment seriously limits the utility and accuracy of cellular assays, many of which rely on immunocytochemistry as an endpoint. […]

C[C@@H]1C[C@@H]([C@H](O)CC2CC(=O)NC(=O)C2)C(=O)[C@@H](C)C1 [Cycloheximide]
proliferation marker Ki67 (immunocytochemistry staining): loss of proliferation marker
